Assay results reported in US10640506B2, “Cyclobutyl substituted pyrrolopyridine and pyrrolopyrimidines derivatives as JAK inhibitors” (Incyte Corporation, priority 2010, dated 2020).

Experiments:
JAK2 (a.a. 828-1132) = target: T1, JAK2 (a.a. 828-1132) (Homo sapiens, UniProt O60674); experiment: In vitro JAK kinase assay (HTRF, phosphorylation of biotinylated peptide), JAK2; type: biochemical; conditions: Table F; 1 mM ATP
T1 construct: JAK2 (a.a. 828-1132); His tag (N)
Method in brief: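 His-tagged catalytic domains of human JAK1 (a.a. 837-1142) and JAK2 (a.a. 828-1132), baculovirus-expressed, phosphorylate a biotinylated peptide for 1 hour at room temperature. Stopped with EDTA; detected by HTRF using SA-APC and Eu-Py20 antibody after 40 min binding; values binned as ranges.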

[1] = target: human JAK1 (a.a. 837-1142) (Homo sapiens, UniProt P23458); experiment: In vitro JAK kinase assay (HTRF, phosphorylation of biotinylated peptide), JAK1; type: biochemical; conditions: Table F; 1 mM ATP
Method in brief: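 His-tagged human JAK1 catalytic domain (a.a. 837-1142), baculovirus/insect-cell expressed, phosphorylates a biotinylated peptide for 1 h at room temperature. Reaction stopped with EDTA; product detected by HTRF (SA-APC, Eu-Py20, 40 min binding). IC50 reported as ranges.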

Chain of human JAK1 (a.a. 837-1142) (P23458 849-1154): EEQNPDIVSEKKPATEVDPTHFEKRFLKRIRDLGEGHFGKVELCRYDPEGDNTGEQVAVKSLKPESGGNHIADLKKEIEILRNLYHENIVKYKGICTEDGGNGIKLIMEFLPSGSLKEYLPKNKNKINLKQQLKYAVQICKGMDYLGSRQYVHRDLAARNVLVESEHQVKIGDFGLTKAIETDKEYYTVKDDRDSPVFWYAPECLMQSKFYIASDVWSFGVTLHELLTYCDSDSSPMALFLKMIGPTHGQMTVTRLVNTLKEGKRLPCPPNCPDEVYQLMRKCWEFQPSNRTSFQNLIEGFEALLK
T1 sequence (O60674 828-1132): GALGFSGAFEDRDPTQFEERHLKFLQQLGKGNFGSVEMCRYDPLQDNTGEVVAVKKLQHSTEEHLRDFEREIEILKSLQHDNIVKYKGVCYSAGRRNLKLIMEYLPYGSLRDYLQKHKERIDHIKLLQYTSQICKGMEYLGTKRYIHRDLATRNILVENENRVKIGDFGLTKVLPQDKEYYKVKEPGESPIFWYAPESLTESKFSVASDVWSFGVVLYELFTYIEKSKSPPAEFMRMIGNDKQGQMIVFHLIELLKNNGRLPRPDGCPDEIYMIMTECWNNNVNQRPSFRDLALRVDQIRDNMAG

| IC50 (JAK2 (a.a. 828-1132)) | IC50 [1] | SMILES |
| --- | --- | --- |
| 25 to 100 nM | < 10 nM | CN(C)Cc1cc(C(=O)N2CCN([C@H]3C[C@](CC#N)(n4cc(-c5ncnc6[nH]ccc56)cn4)C3)CC2)nc(C(F)(F)F)c1 [Example 65, {trans-3-(4-{[4-[(dimethylamino)methyl]-6-(trifluoromethyl)pyridin-2-yl]carbonyl}piperazin-1-yl)-1-[4-(7H-pyrrolo[2,3-d]pyrimidin-4-yl)-1H-pyrazol-1-yl]cyclobutyl}acetonitrile] |
| 25 to 100 nM | < 10 nM | N#CC[C@]1(n2cc(-c3ncnc4[nH]ccc34)cn2)C[C@H](N2CCN(C(=O)c3cc(CN)cc(C(F)(F)F)n3)CC2)C1 [Example 67, {trans-3-(4-{[4-(aminomethyl)-6-(trifluoromethyl)pyridin-2-yl]carbonyl}piperazin-1-yl)-1-[4-(7H-pyrrolo[2,3-d]pyrimidin-4-yl)-1H-pyrazol-1-yl]cyclobutyl}acetonitrile] |
| 25 to 100 nM | < 10 nM | N#CC[C@]1(n2cc(-c3ncnc4[nH]ccc34)cn2)C[C@H](N2CCN(C(=O)c3cc(C#N)cc(C(F)(F)F)n3)CC2)C1 [Example 71, 2-[(4-{trans-3-(cyanomethyl)-3-[4-(7H-pyrrolo[2,3-d]pyrimidin-4-yl)-1H-pyrazol-1-yl]cyclobutyl}piperazin-1-yl)carbonyl]-6-(trifluoromethyl)isonicotinonitrile] |
| 10 to 25 nM | < 10 nM | CN(C)Cc1cc(C(=O)N2CCN([C@H]3C[C@](CC#N)(n4cc(-c5ncnc6[nH]ccc56)cn4)C3)CC2)cc(C(F)F)c1 [Example 74, {trans-3-(4-{3-(difluoromethyl)-5-[(dimethylamino)methyl]benzoyl}piperazin-1-yl)-1-[4-(7H-pyrrolo[2,3-d]pyrimidin-4-yl)-1H-pyrazol-1-yl]cyclobutyl}acetonitrile] |
| > 100 nM | 25 to 100 nM | CC(C)N(C)C(=O)N1CCN([C@H]2C[C@](CC#N)(n3cc(-c4ncnc5[nH]ccc45)cn3)C2)CC1 [Example 79, 4-{trans-3-(cyanomethyl)-3-[4-(7H-pyrrolo[2,3-d]pyrimidin-4-yl)-1H-pyrazol-1-yl]cyclobutyl}-N-isopropyl-N-methylpiperazine-1-carboxamide] |
| 25 to 100 nM | < 10 nM | CCCN(C)C(=O)N1CCN([C@H]2C[C@](CC#N)(n3cc(-c4ncnc5[nH]ccc45)cn3)C2)CC1 [Example 80, 4-{trans-3-(cyanomethyl)-3-[4-(7H-pyrrolo[2,3-d]pyrimidin-4-yl)-1H-pyrazol-1-yl]cyclobutyl}-N-methyl-N-propylpiperazine-1-carboxamide] |
| 25 to 100 nM | < 10 nM | CCNC(=O)N1CCN([C@H]2C[C@](CC#N)(n3cc(-c4ncnc5[nH]ccc45)cn3)C2)CC1 [Example 81, 4-{trans-3-(cyanomethyl)-3-[4-(7H-pyrrolo[2,3-d]pyrimidin-4-yl)-1H-pyrazol-1-yl]cyclobutyl}-N-ethylpiperazine-1-carboxamide] |
| > 100 nM | 10 to 25 nM | CN(C)CCCN(C)C(=O)N1CCN([C@H]2C[C@](CC#N)(n3cc(-c4ncnc5[nH]ccc45)cn3)C2)CC1 [Example 82, 4-{trans-3-(cyanomethyl)-3-[4-(7H-pyrrolo[2,3-d]pyrimidin-4-yl)-1H-pyrazol-1-yl]cyclobutyl}-N-[3-(dimethylamino)propyl]-N-methylpiperazine-1-carboxamide] |
| 25 to 100 nM | < 10 nM | CN(C(=O)N1CCN([C@H]2C[C@](CC#N)(n3cc(-c4ncnc5[nH]ccc45)cn3)C2)CC1)C1CC1 [Example 83, 4-{trans-3-(cyanomethyl)-3-[4-(7H-pyrrolo[2,3-d]pyrimidin-4-yl)-1H-pyrazol-1-yl]cyclobutyl}-N-cyclopropyl-N-methylpiperazine-1-carboxamide] |
| > 100 nM | 25 to 100 nM | CN(CC(F)(F)F)C(=O)N1CCN([C@H]2C[C@](CC#N)(n3cc(-c4ncnc5[nH]ccc45)cn3)C2)CC1 [Example 84, 4-{trans-3-(cyanomethyl)-3-[4-(7H-pyrrolo[2,3-d]pyrimidin-4-yl)-1H-pyrazol-1-yl]cyclobutyl}-N-methyl-N-(2,2,2-trifluoroethyl)piperazine-1-carboxamide] |
| 25 to 100 nM | < 10 nM | CC(C)NC(=O)N1CCN([C@H]2C[C@](CC#N)(n3cc(-c4ncnc5[nH]ccc45)cn3)C2)CC1 [Example 85, 4-{trans-3-(cyanomethyl)-3-[4-(7H-pyrrolo[2,3-d]pyrimidin-4-yl)-1H-pyrazol-1-yl]cyclobutyl}-N-isopropylpiperazine-1-carboxamide] |
| 25 to 100 nM | 10 to 25 nM | N#CC[C@]1(n2cc(-c3ncnc4[nH]ccc34)cn2)C[C@H](N2CCN(C(=O)N[C@H]3CC[C@H](O)CC3)CC2)C1 [Example 86, 4-{trans-3-(cyanomethyl)-3-[4-(7H-pyrrolo[2,3-d]pyrimidin-4-yl)-1H-pyrazol-1-yl]cyclobutyl}-N-(trans-4-hydroxycyclohexyl)piperazine-1-carboxamide] |

The remaining lines, values behind:

| SMILES | IC50 (JAK2 (a.a. 828-1132)) | IC50 [1] |
| --- | --- | --- |
| CN(C)C1(c2cc(C(=O)N3CCN([C@H]4C[C@@](CC#N)(n5cc(-c6ncnc7[nH]ccc67)cn5)C4)CC3)nc(C(F)(F)F)n2)CCC1 [Example 64, {cis-3-(4-{[6-[1-(dimethylamino)cyclobutyl]-2-(trifluoromethyl)pyrimidin-4-yl]carbonyl}piperazin-1-yl)-1-[4-(7H-pyrrolo[2,3-d]pyrimidin-4-yl)-1H-pyrazol-1-yl]cyclobutyl}acetonitrile] | 25 to 100 nM | < 10 nM |
| N#CC[C@]1(n2cc(-c3ncnc4[nH]ccc34)cn2)C[C@H](N2CCN(C(=O)c3cc(CO)cc(C(F)(F)F)n3)CC2)C1 [Example 66, {trans-3-(4-{[4-(hydroxymethyl)-6-(trifluoromethyl)pyridin-2-yl]carbonyl}piperazin-1-yl)-1-[4-(7H-pyrrolo[2,3-d]pyrimidin-4-yl)-1H-pyrazol-1-yl]cyclobutyl}acetonitrile] | 25 to 100 nM | < 10 nM |
| CNCc1cc(C(=O)N2CCN([C@H]3C[C@](CC#N)(n4cc(-c5ncnc6[nH]ccc56)cn4)C3)CC2)nc(C(F)(F)F)c1 [Example 68, {trans-3-(4-{[4-[(methylamino)methyl]-6-(trifluoromethyl)pyridin-2-yl]carbonyl}piperazin-1-yl)-1-[4-(7H-pyrrolo[2,3-d]pyrimidin-4-yl)-1H-pyrazol-1-yl]cyclobutyl}acetonitrile] | 10 to 25 nM | < 10 nM |
| COC(C)(C)c1cc(C(=O)N2CCN([C@H]3C[C@](CC#N)(n4cc(-c5ncnc6[nH]ccc56)cn4)C3)CC2)nc(C(F)(F)F)n1 [Example 69, {trans-3-(4-{[6-(1-methoxy-1-methylethyl)-2-(trifluoromethyl)pyrimidin-4-yl]carbonyl}piperazin-1-yl)-1-[4-(7H-pyrrolo[2,3-d]pyrimidin-4-yl)-1H-pyrazol-1-yl]cyclobutyl}acetonitrile] | 25 to 100 nM | < 10 nM |
| CNC1(c2cc(C(=O)N3CCN([C@H]4C[C@](CC#N)(n5cc(-c6ncnc7[nH]ccc67)cn5)C4)CC3)nc(C(F)(F)F)n2)CCC1 [Example 70, {trans-3-(4-{[6-[1-(methylamino)cyclobutyl]-2-(trifluoromethyl)pyrimidin-4-yl]carbonyl}piperazin-1-yl)-1-[4-(7H-pyrrolo[2,3-d]pyrimidin-4-yl)-1H-pyrazol-1-yl]cyclobutyl}acetonitrile] | < 10 nM | < 10 nM |
| N#CC[C@]1(n2cc(-c3ncnc4[nH]ccc34)cn2)C[C@H](N2CCN(C(=O)c3cc(C4(O)CCC4)nc(C(F)(F)F)n3)CC2)C1 [Example 72, {trans-3-(4-{[6-(1-hydroxycyclobutyl)-2-(trifluoromethyl)pyrimidin-4-yl]carbonyl}piperazin-1-yl)-1-[4-(7H-pyrrolo[2,3-d]pyrimidin-4-yl)-1H-pyrazol-1-yl]cyclobutyl}acetonitrile] | 10 to 25 nM | < 10 nM |
| N#CC[C@]1(n2cc(-c3ncnc4[nH]ccc34)cn2)C[C@H](N2CCN(C(=O)c3cc(C4=NCCN4)cc(C(F)(F)F)n3)CC2)C1 [Example 73, {trans-3-(4-{[4-(4,5-dihydro-1H-imidazol-2-yl)-6-(trifluoromethyl)pyridin-2-yl]carbonyl}piperazin-1-yl)-1-[4-(7H-pyrrolo[2,3-d]pyrimidin-4-yl)-1H-pyrazol-1-yl]cyclobutyl}acetonitrile] | 10 to 25 nM | < 10 nM |
| CC(C)(O)c1cc(C(=O)N2CCN([C@H]3C[C@](CC#N)(n4cc(-c5ncnc6[nH]ccc56)cn4)C3)CC2)nc(C(F)(F)F)c1 [Example 75, {trans-3-(4-{[4-(1-hydroxy-1-methylethyl)-6-(trifluoromethyl)pyridin-2-yl]carbonyl}piperazin-1-yl)-1-[4-(7H-pyrrolo[2,3-d]pyrimidin-4-yl)-1H-pyrazol-1-yl]cyclobutyl}acetonitrile] | 10 to 25 nM | < 10 nM |
| COCc1cc(C(=O)N2CCN([C@H]3C[C@](CC#N)(n4cc(-c5ncnc6[nH]ccc56)cn4)C3)CC2)nc(C(F)(F)F)c1 [Example 76, {trans-3-(4-{[4-(methoxymethyl)-6-(trifluoromethyl)pyridin-2-yl]carbonyl}piperazin-1-yl)-1-[4-(7H-pyrrolo[2,3-d]pyrimidin-4-yl)-1H-pyrazol-1-yl]cyclobutyl}acetonitrile] | 10 to 25 nM | < 10 nM |
| CC(C)(O)c1cc(C(=O)N2CCN([C@H]3C[C@](CC#N)(n4cc(-c5ccnc6[nH]ccc56)cn4)C3)CC2)nc(C(F)(F)F)n1 [Example 78, {trans-3-(4-{[6-(1-hydroxy-1-methylethyl)-2-(trifluoromethyl)pyrimidin-4-yl]carbonyl}piperazin-1-yl)-1-[4-(1H-pyrrolo[2,3-b]pyridin-4-yl)-1H-pyrazol-1-yl]cyclobutyl}acetonitrile] | 25 to 100 nM | < 10 nM |
